Read-outs that look alike come from different tables or passages of the source. Square brackets hold non-standard residues; d marks the D form. Primed or numbered codes have the meaning given here. Ends that are not written are not given here. pY = N[C@@H](Cc1ccc(OP(=O)(O)O)cc1)C(=O)O; FITC′ = 5-carboxyfluorescein label; DIG = digoxygenin label; C2 = two carbon spacer; C6 = C6 spacer
Key:
[1] = biological target: T1, STAT3(136–705) (Homo sapiens, UniProt P40763); assay: Multiplexed Alpha assay, STAT3-SH2 binding (AlphaLISA)
T1 construct: amino acids 136 to 705 of human STAT3 and 136 to 703 of human STAT5b; 6×His-tag (N); made in house; host or cells: E. coli BL-21 Star (DE3) pLysS co-transformed with pBirAcm
T1 sequence (P40763 136-705): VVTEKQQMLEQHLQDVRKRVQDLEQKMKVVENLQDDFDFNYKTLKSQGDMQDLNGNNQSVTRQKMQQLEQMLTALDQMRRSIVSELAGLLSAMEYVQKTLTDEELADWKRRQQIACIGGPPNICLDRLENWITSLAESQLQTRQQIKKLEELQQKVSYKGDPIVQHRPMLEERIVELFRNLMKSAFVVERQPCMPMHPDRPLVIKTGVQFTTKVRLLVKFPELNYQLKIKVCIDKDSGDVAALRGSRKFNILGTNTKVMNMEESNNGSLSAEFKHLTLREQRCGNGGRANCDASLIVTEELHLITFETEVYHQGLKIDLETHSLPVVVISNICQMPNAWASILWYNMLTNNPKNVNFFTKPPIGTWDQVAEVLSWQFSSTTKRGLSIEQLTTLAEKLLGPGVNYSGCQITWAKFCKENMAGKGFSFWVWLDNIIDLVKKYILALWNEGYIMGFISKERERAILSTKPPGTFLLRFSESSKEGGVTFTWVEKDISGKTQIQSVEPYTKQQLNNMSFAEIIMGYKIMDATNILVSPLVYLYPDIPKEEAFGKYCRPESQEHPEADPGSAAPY
Procedure: (§1) Both AlphaLISA and AlphaScreen are bead-based nonradioactive binding assay systems for detecting biomolecular interactions in a microplate format. The binding of the biological partners brings the donor and acceptor beads into close proximity, and AlphaLISA produces a specific signal around 615 nm and AlphaScreen emits a broad signal between 520 and 620 nm. The assays were performed in a final reaction volume of 25 µL of the assay buffer, which contained 10 mM HEPES-NaOH (pH 7.4), 50 mM NaCl, 1 mM EDTA (pH 8.0), 0.1% (w/v) NP-40, and 10 ng/µL (w/v) BSA in a 96-well microplate at 25°C. The labeled phosphotyrosyl (pTyr, pY) peptide probes were DIG-GpYLPQTV and FITC-GpYLVLDKW for STAT3 and STAT5b, respectively. In the single assay for STAT3 binding, 100 nM STAT3(136–705) protein was incubated with a test compound dissolved in DMSO for 30 min, and 1.0 nM DIG-GpYLPQTV was added and the mixture was incubated for 90 min. Streptavidin-coated donor beads (0.25 µg/well) and anti-DIG AlphaLISA acceptor beads (0.25 µg/well) were added and incubated for 90 min before the signals were measured with EnVison Xcite (PerkinElmer Life Sciences). In the single assay for STAT5b binding, 20 nM STAT5b(136–703) was incubated with a test compound for 30 min, and 1.0 nM FITC-GpYLVLDKW was added and incubated for 90 min. Streptavidin-coated donor beads (0.25 µg/well) and anti-FITC AlphaScreen acceptor beads (0.25 µg/well) were added and incubated for 90 min before the signals were measured with EnVison Xcite. In the multiplexed assay, 100 nM STAT3(136–705) and 20 nM STAT5b(136–703) were incubated with a test compound for 30 min, and 1.0 nM DIG-GpYLPQTV and 1.0 nM FITC-GpYLVLDKW were added and incubated for 90 min. Streptavidin-coated donor beads (0.50 µg/well), anti-DIG AlphaLISA (0.25 µg/well), and anti-FITC AlphaScreen acceptor beads (0.25 µg/well) were added and incubated for 90 min before the signals were measured with EnVison Xcite. AlphaLISA and AlphaScreen signals for measuring STAT3- and STAT5b-SH2 binding, respectively, can be separately measured by using a dysprosium 572 nm and a europium 615 nm narrow bandwidth filter. In inhibitory assays, these signals for the bound state and the free state were represented as 0% and 100% inhibition, respectively. The bound state was measured by incubating the labeled peptide and the protein without test compounds. The free state was measured by incubating the same mixture with an additional 10 µM non-labeled peptide contained phosphorylated tyrosine, which competitively binds to its corresponding protein. The IC50 value was calculated by Graph pad prism 4.0. The mean and the standard error (SEM) of IC50 values were determined from three independent experiments. The Z’ value was calculated using the equation Z’ = 1–(3×SD_bound +3×SD_free)/(Signal_bound – Signal_free). STAT1 and Grb2 binding assays were performed as described in previous report. In the assays for selectivity of Compound 1, 100 pM biotinylated DIG or 100 pM biotinylated FITC was incubated with 10 µM or 30 µM Compound 1 for 30 min. Streptavidin-coated donor beads (0.25 µg/well) and anti-DIG AlphaLISA acceptor beads (0.25 µg/well) or anti-FITC AlphaScreen acceptor beads (0.25 µg/well) were added and incubated for 90 min before the signals were measured with EnVison Xcite.

[2] = biological target: T2, STAT5b(136–703) (Homo sapiens, UniProt P51692); assay: Multiplexed Alpha assay, STAT5b-SH2 binding (AlphaScreen)
T2 construct: 136 to 703 of human STAT5b; 6×His-tag (N); made in house; host or cells: E. coli BL-21 Star (DE3) pLysS co-transformed with pBirAcm
T2 sequence (P51692 136-703): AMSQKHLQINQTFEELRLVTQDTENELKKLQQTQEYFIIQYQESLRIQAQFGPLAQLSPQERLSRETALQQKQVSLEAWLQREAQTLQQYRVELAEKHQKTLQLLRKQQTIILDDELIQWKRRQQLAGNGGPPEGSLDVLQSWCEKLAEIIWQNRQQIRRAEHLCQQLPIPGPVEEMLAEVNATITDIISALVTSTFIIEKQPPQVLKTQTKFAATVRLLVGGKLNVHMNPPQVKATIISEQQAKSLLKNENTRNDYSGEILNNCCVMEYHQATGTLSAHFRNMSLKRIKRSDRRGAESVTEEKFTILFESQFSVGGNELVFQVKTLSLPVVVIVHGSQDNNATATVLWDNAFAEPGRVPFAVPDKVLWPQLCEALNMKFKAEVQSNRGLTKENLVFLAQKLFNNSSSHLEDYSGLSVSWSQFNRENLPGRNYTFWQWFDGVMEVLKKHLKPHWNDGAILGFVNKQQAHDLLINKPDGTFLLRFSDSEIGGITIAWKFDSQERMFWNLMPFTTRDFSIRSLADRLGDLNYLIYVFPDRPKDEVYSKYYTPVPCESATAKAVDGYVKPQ
Procedure: as §1

[3] = tested on: STAT3 nuclear translocation in HeLa cells; assay: STAT3 nuclear translocation assay in oncostatin M-stimulated HeLa cells; format: cell-based
Procedure: The Cellomics STAT3 Activation Kit (Thermo Scientific) was used for the nuclear translocation assay. HeLa cells were incubated in a 96-well microplate for 24 h. Cells were pretreated with the test compounds for 1 hour, and 30 ng/mL (w/v) of oncostatin M was applied and the mixture was incubated for 10 min. The subsequent procedures were performed according to the manufacturer’s instructions. The cells were scanned with an ArrayScan VTI reader (Thermo Scientific), and analyzed with the Cytoplasm to Nucleus Translocation Application. The mean fluorescent values in the nuclei were calculated. The signals for vehicle treatment and no treatment (without oncostatin M) were represented as 100% and 0%, respectively, and the relative signal intensity was also calculated.

[4] = tested on: JAK2; set-up: method as in PMID 11934592; settings: in vitro assay; cited from earlier work
[5] = tested on: JAK3; set-up: method as in PMID 11934592; settings: in vitro assay; cited from earlier work
[6] = tested on: TYK2; set-up: method as in PMID 11934592; settings: in vitro assay; cited from earlier work
[7] = biological target: T1, STAT3(136–705); assay: Single STAT3-SH2 binding assay (AlphaLISA); settings: single assay, non-labeled peptides (Figure 4A)
Procedure: as §1

[8] = biological target: T2, STAT5b(136–703); assay: Single STAT5b-SH2 binding assay (AlphaScreen); settings: single assay, non-labeled peptides (Figure 4B)
Procedure: as §1

[9] = biological target: T1, STAT3(136–705); assay: AlphaScreen competition of FITC-C6-GpYLPQTV binding to STAT3(136–705); settings: AlphaScreen system, competitor (Figure S2)
Procedure: To acquire the signal window, the length of the spacer between DIG and the peptide sequence in the DIG-labeled GpYLPQTV peptide was investigated by using the single STAT3-SH2 binding assay. A six carbon (C6) and a two carbon (C2) peptide spacer were used (Figure 3A). […] The DIG-C6-GpYLPQTV peptide was chosen as the STAT3 ligand. When 100 nM STAT3(136–705) was used as the biotinylated protein, 2.0 nM DIG-C6-GpYLPQTV produced the maximum signal for the STAT3-SH2 binding (Figure 3B, Figure S1). For the STAT5b-SH2 binding, FITC-C6-GpYLVLDKW was used as the STAT5b ligand. The signals increased in a peptide dose-dependent manner (Figure S1). When 20 nM STAT5b(136–703) was used, 2.5 nM FITC-C6-GpYLVLDKW produced the maximum signal for STAT5b-SH2 binding. […] Therefore, although DIG-C2-GpYLPQTV could bind to STAT3, it was not suitable for the Alpha system. The anti-DIG antibody may access the DIG-C6-GpYLPQTV peptide-STAT3 protein complex in preference to the DIG-C2-GpYLPQTV peptide complex because of the length of the spacer.
Supplementary file pone.0071646.s002.tif: Figure S2 Inhibition of STAT3-SH2 binding by DIG-C2-GpYLPQTV. DIG-C2-GpYLPQTV was used as a competitor in the binding assay for STAT3(136–705) protein and FITC-C6-GpYLPQTV peptide in the single assay. Each point is the mean from three replicates, and the error bars represent the standard deviation from the mean. […]

[10] = biological target: T3, STAT5b(136–703) (human, UniProt P51692 136-703, biotin on the Avi-tag); assay: AlphaScreen or HTRF; AlphaScreen, single STAT5b-SH2 assay, competition: 20 nM biotinylated STAT5b(136-703) incubated with non-labelled peptide, then 1.0 nM FITC-GpYLVLDKW for 90 min; streptavidin donor and anti-FITC acceptor beads; 10 mM HEPES-NaOH pH 7.4, 50 mM NaCl, 1 mM EDTA, 0.1% NP-40, BSA, 25°C; settings: both partners purified
T3 construct: also called biotinylated STAT5b protein; truncated form of STAT5b; source: E. coli BL-21 Star (DE3) pLysS with pBirAcm (biotinylated in the cells), purified (HisTrap HP, dialysis); not shown: Avi-tag, N-terminal, kept
T3 sequence (looked up): T2 sequence (P51692 136-703)

[11] = multiplexed binding assay, mean and SEM, three independent experiments, read-out: IC50 STAT3-SH2 binding (STAT3)
[12] = multiplexed binding assay, mean and SEM, three independent experiments, read-out: IC50 STAT5b-SH2 binding (STAT5b)
[13] = multiplexed assay, read-out: IC50 for STAT3-SH2 binding
[14] = multiplexed assay, read-out: IC50 for STAT5b-SH2 binding

CCOc1ccccc1NC1=C(Cl)C(=O)c2ccccc2C1=O [Compound 2]
Increase in inhibitory activity against STAT3 in comparison with Compound 1 ([1]; multiplexed assay): approximately 3 fold | IC50 [1, 11]: 1.5 ± 0.052 µM | Increase in inhibitory activity against STAT5b in comparison with Compound 1 ([2]; multiplexed assay): ~8 fold | IC50 [2, 12]: 1.4 ± 0.019 µM

CC(=O)NC1=C(Cl)C(=O)c2ccccc2C1=O [Compound 4]
IC50 [1, 11]: 23 ± 0.68 µM | IC50 [2, 12]: > 30 µM

O=C1C(Cl)=C(Cl)C(=O)c2ccccc21 [Compound 5]
IC50 [1, 11]: 12 ± 0.59 µM | IC50 [2, 12]: 20 ± 0.33 µM

O=C1C(Cl)=C(N2CCOCC2)C(=O)c2ccc(S(=O)(=O)N3CCOCC3)cc21 [Compound 6]
IC50 [1, 11]: 3.8 ± 0.064 µM | IC50 [2, 12]: 13 ± 0.38 µM

CN1CCN(C2=C(Cl)C(=O)c3ccccc3C2=O)CC1 [Compound 7]
IC50 [1, 11]: > 30 µM | IC50 [2, 12]: > 30 µM | Effect on STAT3 nuclear translocation ([3]; HeLa cells, pretreatment before oncostatin M (Figure 6, Figure S9)): did not inhibit

CC(C)(C)c1nc2c3cc[nH]c(=O)c3c3cc(F)ccc3c2[nH]1 [JAK inhibitor 1]
Fluorescent intensity of STAT3 in the nuclei, of the vehicle treatment ([3]; 1 µM, positive control, HeLa): 61% | IC50 [4]: […] | IC50 [5]: […] | IC50 [6]: […]

O=C(NN=Cc1coc2ccccc2c1=O)c1cccnc1 [STAT5 inhibitor, N′-((4-Oxo-4H-chromen-3-yl)methylene)nicotinohydrazide, reference compound]
IC50 [1, 13]: 161 µM | IC50 [2, 14]: 2.8 µM

O=[N+]([O-])c1ccc2c(c1)S(=O)(=O)C=C2 [Stattic, reference compound]
IC50 [1, 13]: 50 µM | IC50 [2, 14]: 175 µM

Ac-GYLPQTV-NH2
Inhibitory effect on STAT3-SH2 binding [7]: had no effect | Inhibitory effect on STAT5b-SH2 binding [8]: had no effect

Ac-GYLVLDKW-NH2
Inhibitory effect on STAT3-SH2 binding [7]: had no effect | Inhibitory effect on STAT5b-SH2 binding [8]: had no effect

Ac-GpYLPQTV-NH2 (Ac-G[pY]LPQTV-NH2) [non-labeled phosphotyrosine peptide for STAT3]
Inhibitory effect on STAT3-SH2 binding [7]: inhibited | Inhibitory effect on STAT5b-SH2 binding [8]: had no effect

Ac-GpYLVLDKW-NH2
Inhibitory effect on STAT3-SH2 binding [7]: had no effect | Inhibitory effect on STAT5b-SH2 binding [8]: inhibited

DIG-C2-GpYLPQTV ({DIG-C2}-G[pY]LPQTV) [digoxygenin-labeled GpYLPQTV peptide with two carbon spacer]
Inhibition of binding between FITC-C6-GpYLPQTV and STAT3(136–705) [9]: inhibited

B1: FITC-C6-GpYLVLDKW (peptide)
peptide: {FITC′-C6}-G[pY]LVLDKW
notes: the leading G is not the receptor's residue at that place; also called FITC-GpYLVLDKW; FITC-labeled GpYLVLDKW peptide; source: synthetic peptide (synthesized by Nippi Biomatrix Laboratory)
binding result [10]: binds

B2: Ac-GpYLVLDKW-NH2 (peptide)
peptide: Ac-G[pY]LVLDKW-NH2
SMILES: CC(=O)NCC(=O)N[C@@H](Cc1ccc(OP(=O)(O)O)cc1)C(=O)N[C@@H](CC(C)C)C(=O)N[C@H](C(=O)N[C@@H](CC(C)C)C(=O)N[C@@H](CC(=O)O)C(=O)N[C@@H](CCCCN)C(=O)N[C@@H](Cc1c[nH]c2ccccc12)C(N)=O)C(C)C
notes: the leading G is not the receptor's; also called non-labeled peptide for STAT5b
binding result [10]: binds

Source: publication PMC3745430, “Novel Multiplexed Assay for Identifying SH2 Domain Antagonists of STAT Family Proteins” (PLoS ONE, 2013)
